Experimental data reported in patent US8492589B2, “Alkynyl phenyl derivative compounds for treating ophthalmic diseases and disorders” (Acucela Inc., priority 2007, dated 2013).
Like-named read-outs stand apart in the source and are kept apart here.

Target: T1, isomerase (Mus musculus, UniProt Q91ZQ5)
T1 construct: The recovery of 11-cis-retinal after bleaching can be used to estimate the activity of isomerase in vivo; from tissue; host or cells: eyes of living CD-1 and Balb/c male mice
T1 sequence (Q91ZQ5 1-533): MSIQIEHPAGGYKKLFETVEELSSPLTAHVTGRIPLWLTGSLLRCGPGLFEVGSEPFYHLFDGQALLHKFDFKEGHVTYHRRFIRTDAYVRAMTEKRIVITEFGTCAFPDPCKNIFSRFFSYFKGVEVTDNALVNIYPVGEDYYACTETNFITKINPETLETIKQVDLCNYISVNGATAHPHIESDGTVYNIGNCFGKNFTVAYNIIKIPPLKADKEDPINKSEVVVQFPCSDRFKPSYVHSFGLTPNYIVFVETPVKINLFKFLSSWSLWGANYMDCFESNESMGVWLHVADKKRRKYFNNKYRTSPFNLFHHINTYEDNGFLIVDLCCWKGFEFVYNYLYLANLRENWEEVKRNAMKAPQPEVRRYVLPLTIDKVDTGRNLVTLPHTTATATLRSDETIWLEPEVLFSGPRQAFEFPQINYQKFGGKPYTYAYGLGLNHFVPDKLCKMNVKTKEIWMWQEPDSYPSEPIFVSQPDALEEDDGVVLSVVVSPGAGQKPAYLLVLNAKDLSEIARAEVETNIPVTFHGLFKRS
Experiment: In vivo murine isomerase assay (recovery of 11-cis-retinal after photobleaching)
Parameters: species or system mice
Conditions: for inhibition in vivo at 1 mg/kg / inhibition in vivo at 5 mg/kg / ED50: mouse; for inhibition in vivo at 1 mg/kg / inhibition in vivo at 5 mg/kg: read-out: % Inibition; for ED50: po, read-out: ED50 (dose of compound that gives 50% inhibition of 11-cis retinal (oxime) recovery), estimated, male Balb/c mice, HCl salts dosed orally in mg/kg; for ED50 / inhibition of isomerase activity in vivo (figure legend): photobleached 4 hours after dosing; for inhibition of isomerase activity in vivo (figure legend): oral dose response, Balb/c mice
Description: The capability of alkynyl phenyl-linked amine derivatives to inhibit isomerase is determined by an in vivo murine isomerase assay. Brief exposure of the eye to intense light (“photobleaching” of the visual pigment or simply “bleaching”) is known to photo-isomerize almost all 11-cis-retinal in the retina. The recovery of 11-cis-retinal after bleaching can be used to estimate the activity of isomerase in vivo. Delayed recovery, as represented by lower 11-cis-retinal oxime levels, indicates inhibition of isomerization reaction. Procedures were performed essentially as described by Golczak et al., Proc. Natl. Acad. Sci. […] See also Deigner et al., Science, 244: 968-71 (1989); […] Parish, et al., Proc. Natl. Acad. Sci. USA, 14609-13 (1998); […] Six-week old dark-adapted CD-1 (albino) male mice were orally gavaged with compound (0.03-3 mg/kg) dissolved in 100 μl corn oil containing 10% ethanol (five animals per group). […] After 2-24 hours in the dark, the mice were exposed to photobleaching of 5,000 lux of white light for 10 minutes. The mice were allowed to recover 2 hours in the dark. The animals were then sacrificed by carbon dioxide inhalation. Retinoids were extracted from the eye and the regeneration of 11-cis-retinal was assessed at various time intervals. All steps were performed in darkness with minimal redlight illumination (low light darkroom lights and […] flashlights for spot illumination as needed) (see, e.g., Maeda et al., J. Neurochem 85:944-956, 2003; Van Hooser et al., J Biol Chem 277:19173-82, 2002). After the mice were sacrificed, the eyes were immediately removed and placed in liquid nitrogen for storage. The eyes were placed in 500 μL of bis-tris propane buffer (10 mM, pH 7.3) and 20 μL of 0.8M hydroxile amine (pH-7.3). The eyes were cut up into small pieces with small iris scissors and then thoroughly homogenized at 30000 rpm with a mechanical homogenizer (Polytron PT 1300 D) in the tube until no visible tissue remained. 500 μL of methanol and 500 μL of heptane were added to each tube. The tubes were attached to a vortexer so that the contents were mixed thoroughly for 15 minutes in room temperature. […] The samples were analyzed on an Agilent 1100 HPLC system with normal phase column: SILICA (Beckman Coutlier, dp 5 μm, […]). The running method has a flow rate of 1.5 ml/min; solvent components are 15% solvent 1 (1% isopropanol in ethyl acetate), and 85% solvent 2 (100% hexanes). Loading volume for each sample is 100 μl; detection wavelength is 360 nm. The area under the curve for 11-cis retinal oxime was calculated by Agilent Chemstation software and was recorded manually. Data processing was performed using Prizm software. Positive control mice (no compound administered) were sacrificed fully dark-adapted and the eye retinoids analyzed. Light (bleached) control mice (no compound administered) were sacrificed and retinoids isolated and analyzed immediately after light treatment. […] Animals that received Compound 19 HCl were orally dosed with 0.01 and 1 mg/kg of compound in sterile water as solution, and photobleached 4 hours after dosing. Recovery and retinoid analysis were performed as described above. Dark control mice were vehicle-only treated, sacrificed fully dark adapted without light treatment, and analyzed. […] A time course study was performed to determine the isomerase inhibitory activity of Compounds 2, 18 and 19. Male Balb/c mice (4/group) received 3 mg Compound 2-HCl, Compound 18-HCl or Compound 19-HCl (in water) per kg bodyweight orally, by gavage. The animals were then “photo-bleached” (5000 Lux white light for 10 minutes) at 2, 4, 8, 16 and 24 hours after dosing, and returned to darkness to allow recovery of the 11-cis-retinal content of the eyes. Mice were sacrificed 2 hours after bleaching, eyes were enucleated, and retinoid content was analyzed by HPLC. A single dose study of the compound of Example 36 (Compound 36) was performed, at 1 mg/kg and 5 mg/kg oral dosing, 2, 4, 6, and 24 hours post bleaching. […]

Compound | inhibition in vivo at 1 mg/kg (4 h) [%] | inhibition in vivo at 1 mg/kg (24 h) [%] | inhibition in vivo at 5 mg/kg (4 h) [%] | inhibition in vivo at 5 mg/kg (24 h) [%] | ED50 [mg/kg] | inhibition of isomerase activity in vivo (figure legend)
CC(C)C(O)(C#Cc1cccc(OCCN)c1)C(C)C [Example 28, 1-(3-(2-Aminoethoxy)phenyl)-3-isopropyl-4-methylpent-1-yn-3-ol] | 27 | 0 | – | – | – | –
NCCCc1cccc(C#Cc2ccccc2)c1 [Example 37, 3-(3-(Phenylethynyl)phenyl)propan-1-amine] | 23 | 9 | 73 | 0 | – | –
NCCCc1cccc(C#Cc2ccccn2)c1 [Example 61, 3-(3-(Pyridin-2-ylethynyl)phenyl)propan-1-amine] | 0 | 0 | – | – | – | –
NCCC(O)c1cccc(C#CC2(O)CCCCCC2)c1 (stereo not drawn) [Example 59, 1-((3-(3-Amino-1-hydroxypropyl)phenyl)ethynyl)cycloheptanol] | 31 | 0 | – | – | – | –
NCCOc1cccc(C#CCCCCO)c1 [Example 74, 6-(3-(2-Aminoethoxy)phenyl)hex-5-yn-1-ol] | 8 | 0 | – | – | – | –
NCCC(O)c1cccc(C#CC2CCCC2)c1 (stereo not drawn) [Example 47, 3-Amino-1-(3-(cyclopentylethynyl)phenyl)propan-1-ol] | 100 | 2 | – | – | – | –
NCCOc1cccc(C#CC2(O)CCCCC2)c1 [Example 57, 1-((3-(2-Aminoethoxy)phenyl)ethynyl)cyclohexanol] | 8 | 21 | – | – | – | –
NCCOc1cccc(C#CC2(O)CCCCCC2)c1 [Example 78, 1-((3-(2-aminoethoxy)phenyl)ethynyl)-cycloheptanol] | 0 | 0 | – | – | – | –
NCCC(O)c1cccc(C#CCCCCO)c1 (stereo not drawn) [Example 50, 6-(3-(3-Amino-1-hydroxypropyl)phenyl)hex-5-yn-1-ol] | 13 | 31 | – | – | – | –
COc1ccccc1C#Cc1cccc(C(O)CCN)c1 (stereo not drawn) [Example 54, 3-Amino-1-(3-((2-Methoxyphenyl)Ethynyl)Phenyl)Propan-1-ol] | 67 | 58 | – | – | – | –
CCC(O)(C#Cc1cccc(CCCN)c1)CC [Example 1, 1-(3-(3-Aminopropyl)phenyl)-3-ethylpent-1-yn-3-ol] | 3 | 0 | – | – | – | –
NCCC(O)c1cccc(C#CC2(O)CCCCC2)c1 (stereo not drawn) [Example 99, 1-((3-(3-Amino-1-hydroxypropyl)phenyl)ethynyl)cyclohexanol] | 31 | 0 | – | – | – | –
CCCC(O)(C#Cc1cccc([C@@H](O)CCN)c1)CCC [Compound 101, (S)-4-((3-(3-Amino-1-Hydroxypropyl)Phenyl)Ethynyl)Heptan-4-ol] | – | – | – | – | 0.38 | concentration-dependent inhibition
NCCC(O)c1cccc(C#CC2CCCCC2)c1 (stereo not drawn) [Example 52, 3-Amino-1-(3-(Cyclohexylethynyl)Phenyl)Propan-1-ol] | 72 | 2 | – | – | – | –
NCCOc1cccc(C#Cc2cccnc2)c1 [Example 62, 2-(3-(Pyridin-3-ylethynyl)phenoxy)ethanamine] | 0 | 0 | – | – | – | –

The remaining lines, values ahead:

inhibition in vivo at 1 mg/kg (4 h) [%] | inhibition in vivo at 1 mg/kg (24 h) [%] | inhibition in vivo at 5 mg/kg (4 h) [%] | inhibition in vivo at 5 mg/kg (24 h) [%] | ED50 [mg/kg] | inhibition of isomerase activity in vivo (figure legend) | Compound
18 | 0 | – | – | – | – | NCCCc1cccc(C#C[C@@H](O)c2ccccc2)c1 [Example 26, (S)-3-(3-(3-Aminopropyl)phenyl)-1-phenylprop-2-yn-1-ol]
0 | 0 | 27 | 0 | – | – | NCCCc1cccc(C#CC2(O)CCCC2)c1 [Example 24, 1-((3-(3-Aminopropyl)phenyl)ethynyl)cyclopentanol]
22 | 0 | – | – | – | – | NCCOc1cccc(C#CC2CCCCC2)c1 [Example 80, 2-(3-(Cyclohexylethynyl)phenoxy)ethanamine]
81 | 10 | – | – | – | – | NCCC(O)c1cccc(C#CCCc2ccccc2)c1 (stereo not drawn) [Example 69, 3-Amino-1-(3-(4-phenylbut-1-ynyl)phenyl)propan-1-ol]
18 | 0 | – | – | – | – | NCCOc1cccc(C#CC2(O)CCCC2)c1 [Example 31, 1-((3-(2-Aminoethoxy)phenyl)ethynyl)cyclopentanol]
– | – | – | – | 0.69 | concentration-dependent inhibition | CCCC(O)(C#Cc1cccc(CCCN)c1)CCC [Example 2, 4-((3-(3-Aminopropyl)phenyl)ethynyl)heptan-4-ol]
0 | 0 | 8 | 1 | – | – | NCCCc1cccc(C#CC2CCCC2)c1 [Example 38, 3-(3-(Cyclopentylethynyl)phenyl)propan-1-amine]
– | – | – | – | 1.73 | concentration-dependent inhibition | CCCC(O)(C#Cc1cccc(OCCN)c1)CCC [Example 18, 4-((3-(2-Aminoethoxy)phenyl)ethynyl)heptan-4-ol]
7 | 1 | – | – | – | – | NCCOc1cccc(C#CC2CCCC2)c1 [Example 79, 2-(3-(Cyclopentylethynyl)phenoxy)-ethanamine]
16 | 7 | – | – | – | – | NCCOc1cccc(C#CC2(O)CCSCC2)c1 [Example 55, 4-((3-(2-Aminoethoxy)Phenyl)Ethynyl)Tetrahydro-2H-Thiopyran-4-ol]
0 | 0 | – | – | – | – | NCCC(O)c1cccc(C#CCCO)c1 (stereo not drawn) [Example 51, 4-(3-(3-Amino-1-hydroxypropyl)phenyl)but-3-yn-1-ol]
11 | 0 | – | – | – | – | NCCCc1cccc(C#Cc2ccncc2)c1 [Example 63, 3-(3-(Pyridin-4-ylethynyl)phenyl)propan-1-amine]
